{
  "source": "patent US20080206215A1",
  "about": "“APPARATUS AND METHOD FOR TREATMENT OF MICROORGANISMS DURING PROPAGATION, CONDITIONING AND FERMENTATION” (priority 2006, published 2008)",
  "key": {"yeast [1]": {"tested_on": "yeast", "assay": "yeast viability in corn mash treated with ClO2 during propagation/conditioning", "format": "cell-based", "details": "yeast treated with ClO2 during propagation/conditioning phase; FIG. 4", "from_the_text": "FIG. 4 is a bar graph of viability (% of yeast cells living out of the original number) over time (in hours) in the corn mash treated with 0, 10 and 50 ppm of ClO2.\nChlorine dioxide can also be added during propagation and/or conditioning. For example ClO2 can be added to the yeast slurry before SSF replacing the acid washing step. FIG. 4 is a bar graph of viability (% of yeast cells living out of the original number) over time (in hours) in the corn mash treated with 0, 10 and 500 ppm of ClO2. […] The yeast can tolerate a ClO2 environment and remain viable at high concentrations of ClO2. Competing bacteria, wild yeast, molds, etc. will succumb to the ClO2 leaving only highly viable yeast for fermentation without the additional stress of traditional acid washing. Chlorine dioxide dosages of less than about 50 mg/L may be applied directly to the yeast during propagation."}, "yeast [2]": {"tested_on": "yeast", "assay": "ethanol production from corn mash treated with ClO2 prior to fermentation", "format": "cell-based", "details": "ClO2 dosages of between about 10 and about 75 mg/L applied to the mash prior to fermentation; FIG. 3", "from_the_text": "FIG. 3 is a graph of time (in hours) versus ethanol produced (in grams) for mash treated with various concentrations of ClO2 prior to the fermentation process.\nThe ClO2 can also be added to the mash prior to the fermentation process, for example before the SSF stage. FIG. 3 is a graph of time (in hours) versus ethanol produced (in grams) for mash treated with various concentrations of ClO2 prior to the fermentation process."}, "yeast [3]": {"tested_on": "yeast", "assay": "ethanol production in fermentation batches treated with ClO2 during fermentation", "format": "cell-based", "details": "ClO2 dosages of less than about 15 mg/L applied directly to the fermentation mixture; FIG. 2", "from_the_text": "FIG. 2 is a graph of time (in hours) versus ethanol produced (in grams) for fermentation batches treated with various concentrations of ClO2 during fermentation.\nAs mentioned above, ClO2 can be added directly into the fermentation mixture. This can be done by adding the ClO2 in conjunction with the yeast and glucoamylase, for example during the SSF stage. FIG. 2 is a graph of time (in hours) versus ethanol produced (in grams) for fermentation batches treated with various concentrations of ClO2 during fermentation."}, "bacteria": {"tested_on": "bacteria", "assay": "amount of bacteria (CFU/g) in fermenting mash treated with antimicrobial agents", "format": "cell-based", "details": "FIG. 5", "from_the_text": "FIG. 5 is a bar graph showing the amount of bacteria present (in CFU/g) in fermenting mash treated with different antimicrobial agents (in ppm) at different times (in hours).\nFIG. 5 is a bar graph showing the amount of bacteria present (in CFU/g) in fermenting mash treated with different levels of an antimicrobial agent (in ppm), either ClO2 or antibiotic, at different times (in hours)."}, "fermentation": {"tested_on": "fermentation", "details": "background statement; cited from earlier work"}, "Weisella confusa": {"tested_on": "Weisella confusa", "details": "background statement; cited from earlier work"}},
  "data": [
    {"compound": "[O][Cl+][O-]", "note": "[ClO2, Chlorine dioxide]", "values": [
      {"measurement": "greater yeast viability than untreated yeast", "setting": "yeast [1]", "result": "up to 80%"},
      {"measurement": "reaction with glucoamylase", "setting": "glucoamylase", "result": "does not exhibit a significant reaction with glucoamylase"},
      {"measurement": "ethanol production versus control", "setting": "yeast [2]", "result": "greater ethanol production than the control containing no ClO2"},
      {"measurement": "ethanol production versus control", "setting": "yeast [3]", "result": "greater ethanol production than the control containing no ClO2"},
      {"measurement": "microbial reduction versus untreated mash", "setting": "bacteria; corn mash treated with ClO2, after 72 hours", "result": "greater microbial reduction than untreated mash"},
      {"measurement": "microbial reduction versus antibiotic-treated mash", "setting": "bacteria; corn mash treated with greater than 10 ppm of ClO2, after 72 hours", "result": "greater microbial reduction than the corn mash treated with antibiotic"}
    ]},
    {"compound": "[O-][Cl+]O", "note": "[chlorite ion]", "values": [
      {"measurement": "concentration that inhibits the glucoamylase enzyme", "setting": "glucoamylase; 5% maltose solution, FIG. 6", "result": "≥ 14", "unit": "mg/L"}
    ]},
    {"compound": "Virginiamycin", "values": [
      {"measurement": "concentration that suppresses fermentation", "setting": "fermentation", "result": "over 2 mg/L"},
      {"measurement": "concentration required to inhibit growth", "setting": "Weisella confusa", "result": "over 25 mg/L"}
    ]}
  ]
}
